Laboratory results reported in PMC9250534, “Synthesis and direct assay of large macrocycle diversities by combinatorial late-stage modification at picomole scale” (Nature Communications, 2022).
Blank lines part the entries; values can stand above or below the compound they belong to. Numbered stars: 1 amine (or outer) side, 2 acyl side, 3 side chain; on linkers, the order of the positions; unused ones are H or OH. Bridge positions count the residues as written; N and C are the ends. Square brackets hold non-standard residues; d marks the D form. Peptide text beside a SMILES is read from it. * marks the point of attachment. Benzoyl(3,5-diOMe) = COc1cc(OC)cc(C(=O)*)c1; 2Thenoyl(5-Cl) = O=C(c1ccc(Cl)s1)*; Benzoyl(4-Cl) = O=C(c1ccc(Cl)cc1)*; Cysteamide = C(CS[*:3])N[*:1]; X9 = COc1ccc(CC(=O)*)cc1OC; Isovaleryl = CC(C)CC(=O)*; X1 = O=C(/C=C/c1ccccc1)*; 2Furoyl = O=C(c1ccco1)*; Api = NC1(C(=O)O)CCNCC1; Dap = NC[CH](N)C(=O)O; Mpa = O=C(O)CCS

Biological target: MDM2 (Homo sapiens, UniProt Q00987)
Assay: MDM2 binding screen: displacement of fluorescent p53 peptide probe FP53 (fluorescence polarization)
Settings: for fraction fluorescent probe displaced, Screen: initial screen; for fraction fluorescent probe displaced, Screen / fraction fluorescent probe displaced, Replicate: crude macrocycle reactions
In short: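 Single-point screen: one fluorescence anisotropy reading at 25 °C (485 nm excitation, 535 nm emission) per macrocycle. Crude macrocycle reactions, final 10 µM, were scored for displacing the fluorescent p53 peptide from human MDM2.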

[1] = crude reaction of macrocycle scaffold with Acid 25, (initial screen)
[2] = crude reaction of macrocycle scaffold with Acid 25, replicate
[3] = 10 µM macrocycle concentration, crude acylated macrocycle (scaffold Mpa-AA1-AA2-AA3 x carboxylic acid), p53-based fluorescent peptide, human MDM2

Chain of MDM2 (Q00987 whole entry): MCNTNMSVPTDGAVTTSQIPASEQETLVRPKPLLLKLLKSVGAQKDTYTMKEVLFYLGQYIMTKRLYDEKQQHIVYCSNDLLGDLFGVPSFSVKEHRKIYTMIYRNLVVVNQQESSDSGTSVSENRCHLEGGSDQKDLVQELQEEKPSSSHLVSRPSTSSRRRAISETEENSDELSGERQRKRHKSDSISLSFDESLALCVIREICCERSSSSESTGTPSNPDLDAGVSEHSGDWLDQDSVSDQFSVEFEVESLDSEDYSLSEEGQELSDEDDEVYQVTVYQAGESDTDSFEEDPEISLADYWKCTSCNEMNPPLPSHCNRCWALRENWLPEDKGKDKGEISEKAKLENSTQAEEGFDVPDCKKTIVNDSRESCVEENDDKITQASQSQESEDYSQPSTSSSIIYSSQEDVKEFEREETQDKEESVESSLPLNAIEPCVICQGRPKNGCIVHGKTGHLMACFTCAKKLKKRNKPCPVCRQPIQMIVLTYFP

Structure (SMILES): O=C1CCSSCCNC(=O)[C@@H]2CCCN2C(=O)C2(CCN(C(=O)c3ccc(Cl)cc3)CC2)NC(=O)[C@H](Cc2c[nH]c3ccccc23)N1 [X W D6 B1 Acid 25] ([Mpa]W[Api](Benzoyl(4-Cl))P-Cysteamide; disulfide 1-C)
fraction fluorescent probe displaced, Screen (Acid 25): 0.28
fraction fluorescent probe displaced, Replicate (Acid 25, replicate): 0.25

Structure (SMILES): O=C1CCSSCCNC(=O)[C@H](CNC(=O)c2ccc(Cl)cc2)NC(=O)[C@H](Cc2c[nH]c3ccccc23)NC(=O)c2cccc(c2)CN1 [X B5 W D3 Acid 25]
fraction fluorescent probe displaced, Screen (Acid 25): 0.15
fraction fluorescent probe displaced, Replicate (Acid 25, replicate): 0.12

Structure (SMILES): O=C1NC(Cc2ccccc2)C(=O)NC2(CCN(C(=O)c3ccc(Cl)cc3)CC2)C(=O)NCCSSCCC(=O)N2CCCC1C2 (stereo not shown) [X B4 F D6 + Acid 25]
fraction fluorescent probe displaced [1]: 0.09
fraction fluorescent probe displaced [2]: 0.17

Structure (SMILES): O=C1CCSSCCNC(=O)C2CCCN(C2)C(=O)C2CN(C(=O)c3ccc(Cl)cc3)CCN2C(=O)C(Cc2c[nH]c3ccccc23)N1 (stereo not shown) [X W D7 B4 Acid 25]
fraction fluorescent probe displaced, Screen (Acid 25): 0.15
fraction fluorescent probe displaced, Replicate (Acid 25, replicate): 0.07

Structure (SMILES): CC(C)CC(=O)NC[C@@H]1NC(=O)[C@@H]2CCCN2C(=O)CCSSCCNC(=O)[C@H](Cc2c[nH]c3ccccc23)NC1=O [X-B1-D3-W + A8] ([Mpa]P[Dap](Isovaleryl)W-Cysteamide; disulfide 1-C)
fraction fluorescent probe displaced [3]: 0.1324

Structure (SMILES): COc1cc(OC)cc(C(=O)NC[C@@H]2NC(=O)[C@@H]3CCCN3C(=O)CCSSCCNC(=O)[C@H](Cc3c[nH]c4ccccc34)NC2=O)c1 [X-B1-D3-W + A4] ([Mpa]P[Dap](Benzoyl(3,5-diOMe))W-Cysteamide; disulfide 1-C)
fraction fluorescent probe displaced [3]: 0.03512

Structure (SMILES): CC(C)=CCCC(C)CC(=O)NCC1NC(=O)C2CCCN2C(=O)CCSSCCNC(=O)C(Cc2c[nH]c3ccccc23)NC1=O (mixture of isomers) [X-B1-D3-W + A84]
fraction fluorescent probe displaced [3]: 0.05085

Structure (SMILES): O=C1NCCSSCCC(=O)N2CCCC(C2)C(=O)N2CCN(C(=O)c3ccc(Cl)cc3)CC2C(=O)NC1Cc1ccccc1 (stereo not shown) [X B4 D7 F + Acid 25]
fraction fluorescent probe displaced [1]: 0.15
fraction fluorescent probe displaced [2]: 0.10

Structure (SMILES): O=C1NCCSSCCC(=O)N2CCN(C(=O)c3ccc(Cl)cc3)CC2C(=O)NC(Cc2c[nH]c3ccccc23)C(=O)NCc2cccc1c2 (mixture of isomers) [X D7 W B5 Acid 25]
fraction fluorescent probe displaced, Screen (Acid 25): 0.61
fraction fluorescent probe displaced, Replicate (Acid 25, replicate): 0.58

Structure (SMILES): O=C(NC1CC2C(=O)NCCSSCCC(=O)N3CCCC(C3)C(=O)NC(Cc3c[nH]c4ccccc34)C(=O)N2C1)c1ccc(Cl)cc1 (stereo not shown) [X B4 W D5 Acid 25]
fraction fluorescent probe displaced, Screen (Acid 25): 0.15
fraction fluorescent probe displaced, Replicate (Acid 25, replicate): 0.20

Structure (SMILES): O=C1NC(Cc2ccccc2)C(=O)NCCSSCCC(=O)N2CCN(C(=O)c3ccc(Cl)s3)CC2C(=O)N2CCCC1C2 (stereo not shown) [X D7 B4 F + Acid 14]
fraction fluorescent probe displaced (crude reaction of macrocycle scaffold with Acid 14, (initial screen)): -0.0337
fraction fluorescent probe displaced (crude reaction of macrocycle scaffold with Acid 14, replicate): 0.07

Structure (SMILES): O=C1CCSSCCNC(=O)[C@H](Cc2c[nH]c3ccccc23)NC(=O)[C@H]2CCCN(C2)C(=O)[C@H](CNC(=O)c2ccc(Cl)cc2)N1 [X D3 B4 W Acid 25]
fraction fluorescent probe displaced, Screen (Acid 25): 0.25
fraction fluorescent probe displaced, Replicate (Acid 25, replicate): 0.20

Structure (SMILES): O=C1CCNC(=O)C2CN(C(=O)c3ccc(Cl)s3)CCN2C(=O)C(Cc2c[nH]c3ccccc23)NC(=O)CCSSCCN1 (stereo not shown) [X W D7 B2 Acid 14]
fraction fluorescent probe displaced, Screen (Acid 14): 0.26
fraction fluorescent probe displaced, Replicate (Acid 14, replicate): 0.10

Structure (SMILES): O=C(NC1CC2C(=O)N3CCCC(C3)C(=O)NC(Cc3ccccc3)C(=O)NCCSSCCC(=O)N2C1)c1ccc(Cl)s1 (stereo not shown) [X D5 B4 F Acid 14]
fraction fluorescent probe displaced, Screen (Acid 14): -0.06
fraction fluorescent probe displaced, Replicate (Acid 14, replicate): 0.0211

Structure (SMILES): O=C1CCSSCCNC(=O)C2(CCN(C(=O)c3ccc(Cl)s3)CC2)NC(=O)C(Cc2c[nH]c3ccccc23)NC(=O)c2cccc(c2)CN1 (stereo not shown) [X B5 W D6 Acid 14]
fraction fluorescent probe displaced, Screen (Acid 14): 0.20
fraction fluorescent probe displaced, Replicate (Acid 14, replicate): 0.33

Structure (SMILES): O=C(NC[C@@H]1NC(=O)[C@H](Cc2c[nH]c3ccccc23)NC(=O)[C@@H]2CCCN2C(=O)CCSSCCNC1=O)c1ccc(Cl)cc1 [X B1 W D3 Acid 25] ([Mpa]PW[Dap](Benzoyl(4-Cl))-Cysteamide; disulfide 1-C)
fraction fluorescent probe displaced, Screen (Acid 25): 0.25
fraction fluorescent probe displaced, Replicate (Acid 25, replicate): 0.25

Structure (SMILES): O=C(NC1CC2C(=O)NC(Cc3ccccc3)C(=O)N3CCCC(C3)C(=O)NCCSSCCC(=O)N2C1)c1ccc(Cl)cc1 (stereo not shown) [X D5 F B4 Acid 25]
fraction fluorescent probe displaced, Screen (Acid 25): 0.0244
fraction fluorescent probe displaced, Replicate (Acid 25, replicate): 0.0211

Structure (SMILES): O=C1CCSSCCNC(=O)c2cccc(c2)CNC(=O)[C@H](Cc2c[nH]c3ccccc23)NC(=O)[C@H](CNC(=O)c2ccc(Cl)cc2)N1 [X D3 W B5 Acid 25]
fraction fluorescent probe displaced, Screen (Acid 25): 0.35
fraction fluorescent probe displaced, Replicate (Acid 25, replicate): 0.28

Structure (SMILES): O=C1CCSSCCNC(=O)C2CCCN(C2)C(=O)C2CC(NC(=O)c3ccc(Cl)cc3)CN2C(=O)C(Cc2c[nH]c3ccccc23)N1 (stereo not shown) [X W D5 B4 Acid 25]
fraction fluorescent probe displaced, Screen (Acid 25): 0.22
fraction fluorescent probe displaced, Replicate (Acid 25, replicate): 0.15

Structure (SMILES): O=C1CCSSCCNC(=O)C(Cc2c[nH]c3ccccc23)NC(=O)C2CN(C(=O)c3ccc(Cl)s3)CCN2C(=O)CCN1 (stereo not shown) [X B2 D7 W Acid 14]
fraction fluorescent probe displaced, Screen (Acid 14): 0.17
fraction fluorescent probe displaced, Replicate (Acid 14, replicate): 0.07

Structure (SMILES): O=C(NCC1NC(=O)C(Cc2c[nH]c3ccccc23)NC(=O)C2CCCN2C(=O)CCSSCCNC1=O)c1ccc(Cl)s1 (stereo not shown) [X B1 W D3 Acid 14] ([Mpa]PW[Dap](2Thenoyl(5-Cl))-Cysteamide; disulfide 1-C; configuration not given here)
fraction fluorescent probe displaced, Screen (Acid 14): 0.23
fraction fluorescent probe displaced, Replicate (Acid 14, replicate): 0.15

Structure (SMILES): O=C1CCSSCCNC(=O)c2cccc(c2)CNC(=O)C2(CCN(C(=O)c3ccc(Cl)s3)CC2)NC(=O)[C@H](Cc2ccccc2)N1 [X F D6 B5 Acid 14]
fraction fluorescent probe displaced, Screen (Acid 14): 0.053
fraction fluorescent probe displaced, Replicate (Acid 14, replicate): 0.0211

Structure (SMILES): O=C1CCSSCCNC(=O)C2(CCN(C(=O)c3ccc(Cl)s3)CC2)NC(=O)CCNC(=O)[C@H](Cc2c[nH]c3ccccc23)N1 [X W B2 D6 Acid 14]
fraction fluorescent probe displaced, Screen (Acid 14): 0.20
fraction fluorescent probe displaced, Replicate (Acid 14, replicate): -0.00432

Other lines, results leading:

fraction fluorescent probe displaced, Screen (Acid 91): 0.03
fraction fluorescent probe displaced, Replicate (Acid 91, replicate): -0.11
Structure (SMILES): O=C(/C=C/c1ccccc1)NC[C@@H]1NC(=O)[C@H](Cc2ccccc2)NC(=O)CCNC(=O)CCSSCCNC1=O [X B2 F D3 Acid 91]

fraction fluorescent probe displaced, Screen (Acid 91): 0.03
fraction fluorescent probe displaced, Replicate (Acid 91, replicate): 0.07
Structure (SMILES): O=C(/C=C/c1ccccc1)NC[C@@H]1NC(=O)c2cccc(c2)CNC(=O)[C@H](Cc2c[nH]c3ccccc23)NC(=O)CCSSCCNC1=O [X W B5 D3 Acid 91]

fraction fluorescent probe displaced, Screen (Acid 91): 0.0563
fraction fluorescent probe displaced, Replicate (Acid 91, replicate): -0.0333
Structure (SMILES): O=C(/C=C/c1ccccc1)NC[C@@H]1NC(=O)CCSSCCNC(=O)CCNC(=O)[C@H](Cc2ccccc2)NC1=O [X D3 F B2 Acid 91]

fraction fluorescent probe displaced [3]: 0.02818
Structure (SMILES): COc1ccc(CC(=O)NC[C@@H]2NC(=O)[C@@H]3CCCN3C(=O)CCSSCCNC(=O)[C@H](Cc3ccccc3)NC2=O)cc1OC [X-B1-D3-F + A37] ([Mpa]P[Dap](X9)F-Cysteamide; disulfide 1-C)

fraction fluorescent probe displaced, Screen (Acid 25): -0.04
fraction fluorescent probe displaced, Replicate (Acid 25, replicate): 0.07
Structure (SMILES): O=C1CCNC(=O)C2CN(C(=O)c3ccc(Cl)cc3)CCN2C(=O)CCSSCCNC(=O)C(Cc2ccccc2)N1 (mixture of isomers) [X D7 B2 F Acid 25]

fraction fluorescent probe displaced, Screen (Acid 91): 0.14
fraction fluorescent probe displaced, Replicate (Acid 91, replicate): 0.04
Structure (SMILES): O=C(/C=C/c1ccccc1)NC[C@@H]1NC(=O)CCSSCCNC(=O)[C@H]2CCCN(C2)C(=O)[C@H](Cc2c[nH]c3ccccc23)NC1=O [X D3 W B4 Acid 91]

fraction fluorescent probe displaced [3]: -0.04895
Structure (SMILES): O=C(NC[C@@H]1NC(=O)[C@@H]2CCCN2C(=O)CCSSCCNC(=O)[C@H](Cc2ccccc2)NC1=O)c1ccco1 [X-B1-D3-F + A16] ([Mpa]P[Dap](2Furoyl)F-Cysteamide; disulfide 1-C)

fraction fluorescent probe displaced, Screen (Acid 91): 0.03
fraction fluorescent probe displaced, Replicate (Acid 91, replicate): -0.00827
Structure (SMILES): O=C1CCNC(=O)C2(CCN(C(=O)/C=C/c3ccccc3)CC2)NC(=O)[C@H](Cc2ccccc2)NC(=O)CCSSCCN1 [X F D6 B2 Acid 91]

fraction fluorescent probe displaced [3]: 0.06294
Structure (SMILES): O=C(NC[C@@H]1NC(=O)[C@@H]2CCCN2C(=O)CCSSCCNC(=O)[C@H](Cc2c[nH]c3ccccc23)NC1=O)c1ccco1 [X-B1-D3-W + A16] ([Mpa]P[Dap](2Furoyl)W-Cysteamide; disulfide 1-C)

fraction fluorescent probe displaced, Screen (Acid 14): 0.08
fraction fluorescent probe displaced, Replicate (Acid 14, replicate): 0.10
Structure (SMILES): O=C(NC[C@@H]1NC(=O)[C@H](Cc2ccccc2)NC(=O)[C@H]2CCCN(C2)C(=O)CCSSCCNC1=O)c1ccc(Cl)s1 [X B4 F D3 Acid 14]

fraction fluorescent probe displaced [3]: 0.01749
Structure (SMILES): NC[C@@H]1NC(=O)[C@@H]2CCCN2C(=O)CCSSCCNC(=O)[C@H](Cc2ccccc2)NC1=O [X-B1-D3-F + No Acid] ([Mpa]P[Dap]F-Cysteamide; disulfide 1-C)

fraction fluorescent probe displaced, Screen (Acid 91): 0.00268
fraction fluorescent probe displaced, Replicate (Acid 91, replicate): -0.00827
Structure (SMILES): O=C(/C=C/c1ccccc1)NC[C@@H]1NC(=O)CCSSCCNC(=O)[C@H](Cc2ccccc2)NC(=O)[C@@H]2CCCN2C1=O [X D3 B1 F Acid 91] ([Mpa][Dap](X1)PF-Cysteamide; disulfide 1-C)

fraction fluorescent probe displaced, Screen (Acid 91): 0.00268
fraction fluorescent probe displaced, Replicate (Acid 91, replicate): -0.00827
Structure (SMILES): O=C1NC(Cc2ccccc2)C(=O)N2CCN(C(=O)C=Cc3ccccc3)CC2C(=O)NCCSSCCC(=O)N2CCCC1C2 (stereo not shown) [X B4 F D7 Acid 91]

fraction fluorescent probe displaced, Screen (Acid 91): 0.00268
fraction fluorescent probe displaced, Replicate (Acid 91, replicate): -0.0333
Structure (SMILES): O=C(/C=C/c1ccccc1)N[C@H]1C[C@H]2C(=O)N[C@@H](Cc3c[nH]c4ccccc34)C(=O)NCCC(=O)NCCSSCCC(=O)N2C1 [X D5 W B2 Acid 91]
